What was measured:
[1] = Percent biliary excretion property by administering intravenously to rats was reported as amount of unchanged form of compound detected in bile samples collected at 0-2 hr after the treatment.; settings: rat, iv
[2] = Percent biliary excretion property by administering intravenously to rats was reported as amount of unchanged form of compound detected in bile samples collected at 0-1 hr after the treatment.; settings: rat, iv
[3] = Percent biliary excretion property by administering intravenously to rats was reported as amount of unchanged form of compound detected in bile samples collected at 0-5 hr after the treatment.; settings: rat, iv
[4] = Percent biliary excretion property by administering intravenously to rats was reported as amount of unchanged form of compound detected in bile samples collected at 0-4 hr after the treatment.; settings: rat, iv
[5] = Partition coefficient (logP); settings: octanol/water
[6] = Percent biliary excretion property by administering intravenously to rats was reported as amount of unchanged form of compound detected in bile samples collected at 0-3 hr after the treatment.; settings: rat, iv
[7] = Percent biliary excretion property by administering intravenously to rats was reported as amount of unchanged form of compound detected in bile samples collected at 0-6 hr after the treatment.; settings: rat, iv

Compound: Cn1c([N+](=O)[O-])cnc1C=O
- dose excreted [1]: 19.2%
- dose excreted [2]: 13%
- dose excreted [3]: 31.1%
- dose excreted [4]: 29.2%
- logP [5]: -0.69
- dose excreted [6]: 25%
- dose excreted [7]: 32%

Compound: O=[N+]([O-])c1c[nH]cn1
- dose excreted [1]: 14.1%
- dose excreted [2]: 8.71%
- dose excreted [3]: 24.3%
- dose excreted [4]: 20.9%
- dose excreted [6]: 17.6%
- dose excreted [7]: 26.2%

Compound: Cn1c([N+](=O)[O-])cnc1CO
- dose excreted [1]: 23.3%
- dose excreted [2]: 16.7%
- dose excreted [3]: 34.6%
- dose excreted [4]: 34.6%
- dose excreted [6]: 29.6%
- dose excreted [7]: 37.8%

Compound: Cn1c([N+](=O)[O-])cnc1/C=C/c1ccnc(N)n1 [AZANIDAZOLE]
- dose excreted [1]: 21.1%
- dose excreted [2]: 14.4%
- dose excreted [3]: 30.6%
- dose excreted [4]: 28.4%
- dose excreted [6]: 25%
- dose excreted [7]: 33.1%

Compound: COC(=S)NCCn1c([N+](=O)[O-])cnc1C [CARNIDAZOLE]
- dose excreted [1]: 3.43%
- dose excreted [2]: 1.91%
- dose excreted [3]: 8.42%
- dose excreted [4]: 7%
- dose excreted [6]: 5.11%
- dose excreted [7]: 8.94%

Compound: CC(C)c1ncc([N+](=O)[O-])n1C [IPRONIDAZOLE]
- dose excreted [1]: 5.37%
- dose excreted [2]: 2.99%
- dose excreted [3]: 14%
- dose excreted [4]: 11.7%
- dose excreted [6]: 9.6%
- dose excreted [7]: 14%

Compound: Cc1ncc([N+](=O)[O-])n1CCO [METRONIDAZOLE]
- dose excreted [1]: 12.5%
- dose excreted [2]: 6.77%
- dose excreted [3]: 22.3%
- dose excreted [4]: 19.7%
- dose excreted [6]: 16.8%
- dose excreted [7]: 24.6%

Compound: O=[N+]([O-])c1cncn1CCN1CCOCC1 [NIMORAZOLE]
- dose excreted [1]: 5.25%
- dose excreted [2]: 3.42%
- dose excreted [3]: 10.7%
- dose excreted [4]: 8.71%
- dose excreted [6]: 6.92%
- dose excreted [7]: 11.8%

Compound: Cc1ncc([N+](=O)[O-])n1CC(O)CCl (stereo not drawn) [ORNIDAZOLE]
- dose excreted [1]: 7.33%
- dose excreted [2]: 1.68%
- dose excreted [3]: 13.5%
- dose excreted [4]: 12.3%
- dose excreted [6]: 10.6%
- dose excreted [7]: 14.7%

Compound: Cn1c([N+](=O)[O-])cnc1COC(N)=O [RONIDAZOLE]
- dose excreted [1]: 6.96%
- dose excreted [2]: 4%
- dose excreted [3]: 16.2%
- dose excreted [4]: 15.5%
- logP [5]: -0.38
- dose excreted [6]: 8.88%
- dose excreted [7]: 19.7%

Compound: CCS(=O)(=O)CCn1c([N+](=O)[O-])cnc1C [TINIDAZOLE]
- dose excreted [1]: 3.47%
- dose excreted [2]: 1.99%
- dose excreted [3]: 8.81%
- dose excreted [4]: 7.58%
- dose excreted [6]: 5.25%
- dose excreted [7]: 10.5%

Reference: ChEMBL document CHEMBL1123680, “The influence of physicochemical parameters on the biliary excretion of a series of nitroimidazoles” (J Med Chem, 1987)
